In ChEMBL document CHEMBL1649156, “Antianaerobic activity of sulopenem compared to six other agents” (2009):

Tests used:
Format in all cases: functional
Prevotella intermedia = experiment: Antimicrobial activity in Prevotella intermedia by CLSI agar dilution method in presence of Sulbactam
Actinomyces = experiment: Antimicrobial activity in Actinomyces by CLSI agar dilution method in presence of Sulbactam
Clostridium butyricum = experiment: Antimicrobial activity in Clostridium butyricum by CLSI agar dilution method in presence of Sulbactam
Prevotella bivia = experiment: Antimicrobial activity in Prevotella bivia by CLSI agar dilution method in presence of Sulbactam
[1] = system: Porphyromonas asaccharolytica; experiment: Antimicrobial activity in Porphyromonas asaccharolytica by CLSI agar dilution method in presence of Sulbactam
Phocaeicola vulgatus = experiment: Antimicrobial activity in Bacteroides vulgatus by CLSI agar dilution method in presence of Sulbactam
Clostridium tertium = experiment: Antimicrobial activity in Clostridium tertium by CLSI agar dilution method in presence of Sulbactam
Prevotella buccae = experiment: Antimicrobial activity in Prevotella buccae by CLSI agar dilution method in presence of Sulbactam; details: Segatella buccae
Fusobacterium nucleatum = experiment: Antimicrobial activity in Fusobacterium nucleatum by CLSI agar dilution method in presence of Sulbactam
Clostridium cadaveris = experiment: Antimicrobial activity in Clostridium cadaveris by CLSI agar dilution method in presence of Sulbactam
[2] = system: Paeniclostridium sordellii; experiment: Antimicrobial activity in Clostridium sordellii by CLSI agar dilution method in presence of Sulbactam; details: Paraclostridium sordellii
[3] = system: Prevotella melaninogenica; experiment: Antimicrobial activity in Prevotella melaninogenica by CLSI agar dilution method in presence of Sulbactam
Eggerthella lenta = experiment: Antimicrobial activity in Eggerthella lenta by CLSI agar dilution method in presence of Sulbactam
Thomasclavelia ramosa = experiment: Antimicrobial activity in Clostridium ramosum by CLSI agar dilution method in presence of Sulbactam
Clostridium sp. = experiment: Antimicrobial activity in Clostridium sp. by CLSI agar dilution method in presence of Sulbactam
Prevotella sp. = experiment: Antimicrobial activity in Prevotella sp.by CLSI agar dilution method in presence of Sulbactam
[Clostridium] innocuum = Antimicrobial activity in Clostridium innocuum by CLSI agar dilution method in presence of Sulbactam
Anaerococcus prevotii = experiment: Antimicrobial activity in Anaerococcus prevotii by CLSI agar dilution method in presence of Sulbactam
[4] = system: Peptostreptococcus anaerobius; experiment: Antimicrobial activity in Peptostreptococcus anaerobius by CLSI agar dilution method in presence of Sulbactam
[5] = system: Bacteroides thetaiotaomicron; experiment: Antimicrobial activity in Bacteroides thetaiotaomicron by CLSI agar dilution method in presence of Sulbactam
Prevotella bergensis = experiment: Antimicrobial activity in Prevotella bergensis by CLSI agar dilution method in presence of Sulbactam; details: Hallella bergensis
Prevotella nigrescens = experiment: Antimicrobial activity in Prevotella nigrescens by CLSI agar dilution method in presence of Sulbactam
Porphyromonas gingivalis = experiment: Antimicrobial activity in Porphyromonas gingivalis by CLSI agar dilution method in presence of Sulbactam
Prevotella corporis = experiment: Antimicrobial activity in Prevotella corporis by CLSI agar dilution method in presence of Sulbactam
Cutibacterium acnes = experiment: Antimicrobial activity in Propionibacterium acnes by CLSI agar dilution method in presence of Sulbactam
Bacteroides ovatus = experiment: Antimicrobial activity in Bacteroides ovatus by CLSI agar dilution method in presence of Sulbactam
Bacteroides stercoris = experiment: Antimicrobial activity in Bacteroides stercoris by CLSI agar dilution method in presence of Sulbactam
Anaerococcus tetradius = experiment: Antimicrobial activity in Anaerococcus tetradius by CLSI agar dilution method in presence of Sulbactam
Prevotella disiens = experiment: Antimicrobial activity in Prevotella disiens by CLSI agar dilution method in presence of Sulbactam
[6] = system: Peptoniphilus asaccharolyticus; experiment: Antimicrobial activity in Peptoniphilus asaccharolyticus by CLSI agar dilution method in presence of Sulbactam
[7] = system: Parabacteroides distasonis; experiment: Antimicrobial activity in Bacteroides distasonis by CLSI agar dilution method in presence of Sulbactam
Hoylesella loescheii = experiment: Antimicrobial activity in Prevotella loescheii by CLSI agar dilution method in presence of Sulbactam
Fusobacterium mortiferum = experiment: Antimicrobial activity in Fusobacterium mortiferum by CLSI agar dilution method in presence of Sulbactam
Bifidobacterium = experiment: Antimicrobial activity in Bifidobacterium by CLSI agar dilution method in presence of Sulbactam
Parvimonas micra = experiment: Antimicrobial activity in Micromonas micros by CLSI agar dilution method in presence of Sulbactam
Prevotella denticola = experiment: Antimicrobial activity in Prevotella denticola by CLSI agar dilution method in presence of Sulbactam
[8] = system: Paraclostridium bifermentans; experiment: Antimicrobial activity in Clostridium bifermentans by CLSI agar dilution method in presence of Sulbactam
Clostridium perfringens = experiment: Antimicrobial activity in Clostridium perfringens by CLSI agar dilution method in presence of Sulbactam
Lactobacillus = experiment: Antimicrobial activity in Lactobacillus by CLSI agar dilution method in presence of Sulbactam
Prevotella baroniae = experiment: Antimicrobial activity in Prevotella baroniae by CLSI agar dilution method in presence of Sulbactam; details: Segatella baroniae
[9] = system: Enterocloster clostridioformis; experiment: Antimicrobial activity in Clostridium clostridioforme by CLSI agar dilution method in presence of Sulbactam
Clostridioides difficile = experiment: Antimicrobial activity in Clostridium difficile by CLSI agar dilution method in presence of Sulbactam
Bacteroides fragilis = experiment: Antimicrobial activity in Bacteroides fragilis by CLSI agar dilution method in presence of Sulbactam
Fusobacterium varium = experiment: Antimicrobial activity in Fusobacterium varium by CLSI agar dilution method in presence of Sulbactam
Tissierella praeacuta = experiment: Antimicrobial activity in Clostridium hastiforme by CLSI agar dilution method in presence of Sulbactam
Prevotella veroralis = experiment: Antimicrobial activity in Prevotella veroralis by CLSI agar dilution method in presence of Sulbactam
Bacteroides uniformis = experiment: Antimicrobial activity in Bacteroides uniformis by CLSI agar dilution method in presence of Sulbactam
Finegoldia magna = experiment: Antimicrobial activity in Finegoldia magna by CLSI agar dilution method in presence of Sulbactam
Hoylesella oralis = experiment: Antimicrobial activity in Prevotella oralis group by CLSI agar dilution method in presence of Sulbactam
Prevotella salivae = experiment: Antimicrobial activity in Prevotella salivae by CLSI agar dilution method in presence of Sulbactam; details: Segatella salivae
[10] = system: Fusobacterium necrophorum; experiment: Antimicrobial activity in Fusobacterium necrophorum by CLSI agar dilution method in presence of Sulbactam

Compound `CC1(C)S[C@@H]2[C@H](NC(=O)[C@H](N)c3ccccc3)C(=O)N2[C@H]1C(=O)O` [AMPICILLIN] has an MIC50 (Prevotella intermedia) of 0.25 µg/mL, an MIC90 (Prevotella intermedia) of 0.5 µg/mL and an MIC (Actinomyces) of at most 0.125 µg/mL. The MIC50 (Actinomyces) was 0.25 µg/mL, the MIC (Clostridium butyricum) was 1 µg/mL and the MIC50 (Prevotella bivia) was 1 µg/mL. For the same compound, the MIC90 (Prevotella bivia) was 4 µg/mL, the MIC [1] was at most 0.125 µg/mL and the MIC50 (Phocaeicola vulgatus) was 2 µg/mL. It also gave an MIC90 (Phocaeicola vulgatus) of 16 µg/mL, an MIC (Clostridium tertium) of 0.25 µg/mL and an MIC50 (Clostridium tertium) of 0.25 µg/mL. The MIC50 (Prevotella buccae) was 0.25 µg/mL, the MIC90 (Prevotella buccae) was 2 µg/mL and the MIC (Fusobacterium nucleatum) was at most 0.125 µg/mL. The MIC50 (Fusobacterium nucleatum) was at most 0.125 µg/mL, the MIC90 (Fusobacterium nucleatum) was at most 0.125 µg/mL and the MIC (Clostridium cadaveris) was at most 0.125 µg/mL. It also gave an MIC [2] of at most 0.125 µg/mL, an MIC50 [3] of 0.5 µg/mL and an MIC90 [3] of 2 µg/mL. The MIC50 (Eggerthella lenta) was 1 µg/mL, the MIC90 (Eggerthella lenta) was 2 µg/mL and the MIC (Thomasclavelia ramosa) was at most 0.125 µg/mL. It also gave an MIC50 (Clostridium sp.) of 0.25 µg/mL, an MIC90 (Clostridium sp.) of 0.5 µg/mL and an MIC (Prevotella sp.) of at most 0.125 µg/mL. For the same compound, the MIC ([Clostridium] innocuum) was at most 0.125 µg/mL, the MIC (Anaerococcus prevotii) was at most 0.125 µg/mL and the MIC50 [4] was 0.25 µg/mL. For the same compound, the MIC90 [4] was 16 µg/mL, the MIC50 [5] was 2 µg/mL and the MIC90 [5] was 8 µg/mL. The MIC (Prevotella bergensis) was 1 µg/mL, the MIC50 (Prevotella nigrescens) was 0.25 µg/mL and the MIC90 (Prevotella nigrescens) was 0.5 µg/mL. It also gave an MIC (Porphyromonas gingivalis) of at most 0.125 µg/mL, an MIC (Prevotella corporis) of at most 0.125 µg/mL and an MIC50 (Prevotella corporis) of at most 0.125 µg/mL. It also gave an MIC (Cutibacterium acnes) of at most 0.125 µg/mL, an MIC50 (Cutibacterium acnes) of at most 0.125 µg/mL and an MIC90 (Cutibacterium acnes) of 0.25 µg/mL. For the same compound, the MIC (Bacteroides ovatus) was 1 µg/mL, the MIC50 (Bacteroides ovatus) was 1 µg/mL and the MIC90 (Bacteroides ovatus) was 4 µg/mL. It also gave an MIC (Bacteroides stercoris) of 1 µg/mL, an MIC50 (Bacteroides stercoris) of 2 µg/mL and an MIC (Anaerococcus tetradius) of at most 0.125 µg/mL. The MIC50 (Anaerococcus tetradius) was at most 0.125 µg/mL, the MIC90 (Anaerococcus tetradius) was at most 0.125 µg/mL and the MIC (Prevotella disiens) was at most 0.125 µg/mL. For the same compound, the MIC50 (Prevotella disiens) was 0.25 µg/mL, the MIC [6] was at most 0.125 µg/mL and the MIC50 [6] was at most 0.125 µg/mL. It also gave an MIC50 [7] of 8 µg/mL, an MIC90 [7] of 32 µg/mL and an MIC (Hoylesella loescheii) of 0.5 µg/mL. For the same compound, the MIC50 (Fusobacterium mortiferum) was 1 µg/mL, the MIC90 (Fusobacterium mortiferum) was over 32 µg/mL and the MIC (Bifidobacterium) was at most 0.125 µg/mL. It also gave an MIC50 (Bifidobacterium) of at most 0.125 µg/mL, an MIC90 (Bifidobacterium) of 0.25 µg/mL and an MIC (Parvimonas micra) of at most 0.125 µg/mL. For the same compound, the MIC50 (Parvimonas micra) was at most 0.125 µg/mL, the MIC90 (Parvimonas micra) was 1 µg/mL and the MIC50 (Prevotella denticola) was 0.5 µg/mL. For the same compound, the MIC90 (Prevotella denticola) was 2 µg/mL, the MIC [8] was 0.5 µg/mL and the MIC (Clostridium perfringens) was at most 0.125 µg/mL. The MIC50 (Clostridium perfringens) was at most 0.125 µg/mL, the MIC90 (Clostridium perfringens) was 0.25 µg/mL and the MIC50 (Lactobacillus) was 1 µg/mL. For the same compound, the MIC90 (Lactobacillus) was 1 µg/mL, the MIC (Prevotella baroniae) was at most 0.125 µg/mL and the MIC [9] was 1 µg/mL. For the same compound, the MIC50 (Clostridioides difficile) was 2 µg/mL, the MIC90 (Clostridioides difficile) was 2 µg/mL and the MIC50 (Bacteroides fragilis) was 1 µg/mL. For the same compound, the MIC90 (Bacteroides fragilis) was 8 µg/mL, the MIC50 (Fusobacterium varium) was 2 µg/mL and the MIC90 (Fusobacterium varium) was 2 µg/mL. For the same compound, the MIC (Tissierella praeacuta) was 1 µg/mL, the MIC (Prevotella veroralis) was at most 0.125 µg/mL and the MIC (Bacteroides uniformis) was 1 µg/mL. It also gave an MIC50 (Bacteroides uniformis) of 1 µg/mL, an MIC50 (Finegoldia magna) of 0.25 µg/mL and an MIC90 (Finegoldia magna) of 0.5 µg/mL. The MIC (Hoylesella oralis) was at most 0.125 µg/mL, the MIC (Prevotella salivae) was at most 0.125 µg/mL and the MIC [10] was at most 0.125 µg/mL. It also gave an MIC50 [10] of at most 0.125 µg/mL.
